Measured values reported in PubChem BioAssay AID256 (DTP/NCI, 2004).
Toxic doses and inconclusive results are not listed.

Tested on: CD2F1 mice, L1210 leukemia ip, survival T/C
Experiment: NCI In Vivo Anticancer Drug Screen. Data for tumor model L1210 Leukemia (intraperitoneal) in CD2F1 (CDF1) mice
Details: higher = longer survival
How it was run: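 Antitumor effect is scored in animals hosting a serially transplanted tumor. Values compare compound-dosed animals against vehicle-only controls as a simple quotient.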

[1] = endpoint: mean survival time, dose: 100.0 mg/kg/injection, schedule: Q01DX009 (ip), vehicle: saline with Tween-80
[2] = endpoint: mean survival time, dose: 100.0 mg/kg/injection, schedule: Q04DX003 (ip), vehicle: saline with Tween-80
[3] = endpoint: mean survival time, dose: 200.0 mg/kg/injection, schedule: Q01DX009 (ip), vehicle: saline with Tween-80
[4] = endpoint: mean survival time, dose: 200.0 mg/kg/injection, schedule: Q04DX003 (ip), vehicle: saline with Tween-80
[5] = endpoint: mean survival time, dose: 400.0 mg/kg/injection, schedule: Q01DX009 (ip), vehicle: saline with Tween-80
[6] = endpoint: mean survival time, dose: 400.0 mg/kg/injection, schedule: Q04DX003 (ip), vehicle: saline with Tween-80
[7] = endpoint: mean survival time, dose: 50.0 mg/kg/injection, schedule: Q01DX009 (ip), vehicle: saline with Tween-80
[8] = endpoint: mean survival time, dose: 100.0 mg/kg/injection, schedule: Q01DX009 (ip), vehicle: saline
[9] = endpoint: mean survival time, dose: 200.0 mg/kg/injection, schedule: Q01DX009 (ip), vehicle: saline
[10] = endpoint: mean survival time, dose: 400.0 mg/kg/injection, schedule: Q01DX009 (ip), vehicle: saline
[11] = endpoint: mean survival time, dose: 100.0 mg/kg/injection, schedule: Q01DX001 (ip), vehicle: saline with Tween-80
[12] = endpoint: mean survival time, dose: 200.0 mg/kg/injection, schedule: Q01DX001 (ip), vehicle: saline with Tween-80
[13] = endpoint: mean survival time, dose: 400.0 mg/kg/injection, schedule: Q01DX001 (ip), vehicle: saline with Tween-80

Cc1nn(-c2ccccc2)c2[nH]cnc(=S)c12
T/C (endpoint: mean survival time, dose: 12.5 mg/kg/injection, schedule: Q01DX005 (ip), vehicle: other): 86 % of control
T/C (endpoint: mean survival time, dose: 25.0 mg/kg/injection, schedule: Q01DX005 (ip), vehicle: other): 91 % of control
T/C (endpoint: mean survival time, dose: 50.0 mg/kg/injection, schedule: Q01DX005 (ip), vehicle: other): 92 % of control
T/C (endpoint: mean survival time, dose: 100.0 mg/kg/injection, schedule: Q01DX005 (ip), vehicle: other): 97 % of control
T/C (endpoint: mean survival time, dose: 200.0 mg/kg/injection, schedule: Q01DX005 (ip), vehicle: other): 93 % of control

COc1ccc(C2=N/C(=C\c3ccccc3)C(=O)O2)cc1
T/C [1]: 96 % of control
T/C [2]: 93 % of control
T/C [3]: 90 % of control
T/C [4]: 92 % of control
T/C [5]: 98 % of control
T/C [6]: 89 % of control

CC1=NN(c2ccccc2)C(=O)/C1=C/N(C)C
T/C (endpoint: mean survival time, dose: 3.13 mg/kg/injection, schedule: Q01DX009 (ip), vehicle: saline with Tween-80): 103 % of control
T/C (endpoint: mean survival time, dose: 6.25 mg/kg/injection, schedule: Q01DX009 (ip), vehicle: saline with Tween-80): 97 % of control
T/C (endpoint: mean survival time, dose: 6.25 mg/kg/injection, schedule: Q04DX003 (ip), vehicle: saline with Tween-80): 95 % of control
T/C (endpoint: mean survival time, dose: 12.5 mg/kg/injection, schedule: Q01DX009 (ip), vehicle: saline with Tween-80): 100 % of control
T/C (endpoint: mean survival time, dose: 12.5 mg/kg/injection, schedule: Q04DX003 (ip), vehicle: saline with Tween-80): 90 % of control

COC(=O)Cc1nc2ccccc2[nH]c1=O
T/C [7]: 103 % of control
T/C [1]: 92 % of control
T/C [3]: 100 % of control

CC1COC(=O)O1 (stereo not drawn)
T/C [8]: 101 % of control
T/C [2]: 97 % of control
T/C [9]: 98 % of control
T/C [4]: 97 % of control
T/C [10]: 101 % of control
T/C [6]: 96 % of control

O=C(Nc1ccc(NC2=NCCN2)cc1)c1ccc(C(=O)Nc2ccc(NC3=NCCN3)cc2)cc1
T/C (endpoint: mean survival time, dose: 3.0 mg/kg/injection, schedule: Q01DX008 (iv), vehicle: water): 115 % of control

O=C1C=C(c2ccccc2)OC(=O)C1C(=O)c1ccccc1 (stereo not drawn)
T/C [11]: 98 % of control
T/C [12]: 94 % of control

Cc1csc2ncnc(Cl)c12
T/C [11]: 101 % of control
T/C [12]: 97 % of control
T/C [13]: 97 % of control

Nc1nc(N)nc(CBr)n1
T/C (endpoint: mean survival time, dose: 3.13 mg/kg/injection, schedule: Q01DX001 (ip), vehicle: Klucel (hydroxypropylcellulose) (HPC)): 98 % of control
T/C (endpoint: mean survival time, dose: 6.25 mg/kg/injection, schedule: Q01DX001 (ip), vehicle: Klucel (hydroxypropylcellulose) (HPC)): 98 % of control
T/C (endpoint: mean survival time, dose: 12.5 mg/kg/injection, schedule: Q01DX001 (ip), vehicle: Klucel (hydroxypropylcellulose) (HPC)): 88 % of control

CN(C)c1ccc(N=Nc2ccc(S(=O)(=O)O)cc2)cc1.CN(C)c1ccc(N=Nc2ccc(S(=O)(=O)O)cc2)cc1.O.O.[NH-]C1CCCCC1[NH-].[Pt+2]
T/C (endpoint: median survival time, dose: 3.12 mg/kg/injection, schedule: Q04DX003 (ip), vehicle: saline): 96 % of control
T/C (endpoint: median survival time, dose: 6.25 mg/kg/injection, schedule: Q04DX003 (ip), vehicle: saline): 106 % of control
T/C (endpoint: median survival time, dose: 12.5 mg/kg/injection, schedule: Q04DX003 (ip), vehicle: saline): 101 % of control
T/C (endpoint: median survival time, dose: 25.0 mg/kg/injection, schedule: Q04DX003 (ip), vehicle: saline): 100 % of control
T/C (endpoint: median survival time, dose: 50.0 mg/kg/injection, schedule: Q04DX003 (ip), vehicle: saline): 98 % of control
T/C (endpoint: median survival time, dose: 100.0 mg/kg/injection, schedule: Q04DX003 (ip), vehicle: saline): 105 % of control
T/C (endpoint: median survival time, dose: 200.0 mg/kg/injection, schedule: Q04DX003 (ip), vehicle: saline): 115 % of control

CCOC(=O)CCC(NC(=O)c1ccc(NCc2cnc3nc(N)nc(N)c3c2)cc1)C(=O)OCC (stereo not drawn)
T/C (endpoint: median survival time, dose: 1.0 mg/kg/injection, schedule: Q01DX005 (ip), vehicle: saline with Tween-80): 153 % of control
T/C (endpoint: median survival time, dose: 2.0 mg/kg/injection, schedule: Q01DX005 (ip), vehicle: saline with Tween-80): 174 % of control

COc1cc(/C=N/n2c(-c3ccccc3)nc3ccccc3c2=O)cc(Br)c1O
T/C (endpoint: mean survival time, dose: 50.0 mg/kg/injection, schedule: Q01DX009 (ip), vehicle: Klucel (hydroxypropylcellulose) (HPC)): 91 % of control
T/C (endpoint: mean survival time, dose: 100.0 mg/kg/injection, schedule: Q01DX009 (ip), vehicle: Klucel (hydroxypropylcellulose) (HPC)): 105 % of control
T/C (endpoint: mean survival time, dose: 200.0 mg/kg/injection, schedule: Q01DX009 (ip), vehicle: Klucel (hydroxypropylcellulose) (HPC)): 102 % of control

CCOC(=O)C(C(C)=O)C1=C(Cl)C(=O)c2ccccc2C1=O (stereo not drawn)
T/C (endpoint: mean survival time, dose: 75.0 mg/kg/injection, schedule: Q01DX001 (ip), vehicle: other): 95 % of control
T/C (endpoint: mean survival time, dose: 150.0 mg/kg/injection, schedule: Q01DX001 (ip), vehicle: other): 94 % of control
T/C (endpoint: mean survival time, dose: 300.0 mg/kg/injection, schedule: Q01DX001 (ip), vehicle: other): 92 % of control

O=C(O)c1cc(-c2ccccc2)nc2ccccc12
T/C [11]: 103 % of control
T/C [12]: 97 % of control
T/C [13]: 102 % of control

C/C=C/C=C/C(=O)c1cc(C#N)c(OC)cc1O
T/C [11]: 88 % of control
T/C [12]: 88 % of control
T/C [13]: 89 % of control

COc1cc(OC)c(NC(=O)N2CCN(C)CC2)cc1Cl
T/C [7]: 88 % of control
T/C [1]: 94 % of control

Cc1ccc(C(SCC(N)C(=O)O)(c2ccc(C)cc2)c2ccc(C)cc2)cc1 (stereo not drawn)
T/C [8]: 175 % of control
T/C [9]: 210 % of control
T/C [10]: 200 % of control

CN(C)CN1C(=O)S/C(=C2\C(=O)N(CN(C)C)c3ccccc32)C1=O
T/C (endpoint: median survival time, dose: 50.0 mg/kg/injection, schedule: Q01DX005 (ip), vehicle: Klucel (hydroxypropylcellulose) (HPC)): 100 % of control
T/C (endpoint: median survival time, dose: 100.0 mg/kg/injection, schedule: Q01DX005 (ip), vehicle: Klucel (hydroxypropylcellulose) (HPC)): 98 % of control
T/C (endpoint: median survival time, dose: 200.0 mg/kg/injection, schedule: Q01DX005 (ip), vehicle: Klucel (hydroxypropylcellulose) (HPC)): 101 % of control

c1ccc(Nc2ccc(N=Nc3nc4ccccc4s3)cc2)cc1
T/C [11]: 93 % of control
T/C [12]: 97 % of control
T/C [13]: 97 % of control

O=C(O)C[As](=O)(O)O
T/C (endpoint: mean survival time, dose: 15.0 mg/kg/injection, schedule: Q01DX009 (ip), vehicle: saline): 100 % of control
T/C (endpoint: mean survival time, dose: 30.0 mg/kg/injection, schedule: Q01DX009 (ip), vehicle: saline): 108 % of control
T/C (endpoint: mean survival time, dose: 60.0 mg/kg/injection, schedule: Q01DX009 (ip), vehicle: saline): 91 % of control

O=C(O)c1c(Cl)c(-c2c(Cl)c(C(=O)O)c(Cl)c([N+](=O)[O-])c2Cl)c(Cl)c([N+](=O)[O-])c1Cl
T/C [11]: 93 % of control
T/C [12]: 94 % of control
T/C [13]: 89 % of control

CN1CN(C2CCCCC2)CSC1=S
T/C (endpoint: mean survival time, dose: 100.0 mg/kg/injection, schedule: Q01DX001 (ip), vehicle: saline): 102 % of control
T/C [1]: 102 % of control
T/C (endpoint: mean survival time, dose: 200.0 mg/kg/injection, schedule: Q01DX001 (ip), vehicle: saline): 100 % of control
T/C [3]: 96 % of control
T/C (endpoint: mean survival time, dose: 400.0 mg/kg/injection, schedule: Q01DX001 (ip), vehicle: saline): 102 % of control
T/C [5]: 106 % of control

O=C(OC1C=CCC=C1)c1cc([N+](=O)[O-])cc([N+](=O)[O-])c1
T/C (endpoint: mean survival time, dose: 100.0 mg/kg/injection, schedule: Q01DX009 (ip), vehicle: other): 101 % of control
T/C (endpoint: mean survival time, dose: 200.0 mg/kg/injection, schedule: Q01DX009 (ip), vehicle: other): 95 % of control
T/C (endpoint: mean survival time, dose: 400.0 mg/kg/injection, schedule: Q01DX009 (ip), vehicle: other): 93 % of control

O=C1CSC(=S)N1c1cccc(C(F)(F)F)c1
T/C [1]: 97 % of control
T/C [3]: 112 % of control
T/C [5]: 101 % of control

Cc1cccc(C)c1NC(=O)CCl
T/C [11]: 103 % of control
T/C [12]: 100 % of control

COC(=O)C(C(=O)OC)(C(=O)OC)C(=O)c1ccccc1
T/C [11]: 104 % of control
T/C [12]: 96 % of control
T/C [13]: 93 % of control

CNC(C)C(O)c1ccccc1 (stereo not drawn)
T/C [7]: 100 % of control
T/C [1]: 97 % of control

CN(C)C1(Cc2ccccc2)c2ccccc2-c2ccc(Br)cc21 (stereo not drawn)
T/C [2]: 89 % of control
T/C [4]: 87 % of control
